assay: Human HepG2 cell viability assay in 384 well format; format: toxicity, cell-based; design: dose 125 nL, time 70.5 hour; concentration not given beside the values; settings: HepG2 cells, read-out: Inhibition

| Structure (SMILES) | cytotoxicity at 70.5 h [%] |
| --- | --- |
| CCN(C(C)=O)C1CCN(c2nccc(C3CCCC3)n2)C1 (configuration not stated) | -30.2 |
| CCN1CCOCC12CCN(C(=O)C1CCCC1)CC2 | -0.25 |
| Cc1[nH]ccc1C(=O)Nc1cccc(CN2CCC(CO)CC2)c1 | 27.9 |
| C=C(C)CN1CCN(Cc2cnc(-c3ccccc3C)nc2)CC1 | 23.9 |
| CN(C)Cc1ccnc(C2CCCN2Cc2cccc(F)c2F)n1 (configuration not stated) | -2.17 |
| CCC(C)(CC(=O)OC)NCc1cc(C)on1 (configuration not stated) | -11 |
| NC(=O)CC1c2cccnc2C(=O)N1Cc1ccccc1 (configuration not stated) | -6.46 |
| O=C(Cn1cccn1)N1CCC(c2nnc(-c3ccsc3)o2)CC1 | -4.75 |
| Cc1ccc(C(=O)N2CCN3C[C@H](Oc4cccnc4)C[C@H]3C2)cn1 | 4.6 |
| Cn1cc(CC(=O)N2CCOC(c3nc(C(C)(C)C)n[nH]3)C2)cn1 (configuration not stated) | -1.3 |
| CC(=O)NCC(=O)N1CCC2(CC1)CN(c1cccnc1)C(=O)CO2 | -13.6 |
| O=C1COc2cc(C(=O)NS(=O)(=O)c3ccc(F)cc3F)ccc2N1 | -13.6 |
| COC(=O)c1sccc1S(=O)(=O)NCCC(O)c1ccoc1 (configuration not stated) | -0.756 |
| COCC(C)(O)CNC(=O)COc1ccccc1OC (configuration not stated) | -3.09 |
| COc1ccc(-c2nnc([C@H]3CCN(CC(C)(C)C)C3)o2)cc1 | -1.13 |
| COc1ccc(C(=O)COc2coc(CN3CCCCC3)cc2=O)cc1 | -5.06 |
| COCCN1CCC(CNC(=O)C2(S(C)(=O)=O)CCCC2)CC1 | -3.79 |
| CCC(CC)S(=O)(=O)NC(=O)c1ccc2c(c1)ncn2C | -0.423 |
| O=C(c1cccnc1)N1CCC2(CC1)CNc1c(F)cccc12 | -1.96 |

| Structure (SMILES) | cytotoxicity at 70.5 h [%] |
| --- | --- |
| CN(C)C(CNC(=O)c1nc(N2CCOCC2)ncc1Cl)c1ccco1 (configuration not stated) | -19.3 |
| CNc1cc(-c2ccccc2CN)c2cc[nH]c2n1 | 3.36 |
| N#CCCN(CC(F)(F)F)C(=O)c1cc(-n2cccn2)ccn1 | -3.35 |
| OCCn1ncc2c1CN(CC1CCOc3ccccc3C1)C2 (configuration not stated) | -0.723 |
| O=C(CN1CCC(c2cc(=O)n3c(n2)CCCCC3)C1)N1CCCCC1 (configuration not stated) | -8.93 |
| O=C(CCN1CCc2c(ncn2C2CC2)C1)NC1CCCC1 | -6.41 |
| CCC(CC)NC(=O)c1nc2n(n1)-c1ccccc1S(=O)(=O)N2 | -82.7 |
| CNC(=O)[C@@]12CCCN(c3ncccn3)[C@@H]1CN(C(=O)NC(C)C)C2 | 34.2 |
| COCc1cc(CNC(=O)c2c(C)c(C)cc(C)c2C)n[nH]1 | -4.32 |
| Cc1nc(C2(NCc3cccc(F)c3F)CCCCC2)no1 | -6.93 |
| CCc1cc(N(C)Cc2nonc2C)nc(N(C)C)n1 | 7.36 |
| Cc1ccc(N2CC3(CCN(C(=O)c4ccoc4)C3)C2)nn1 | -12.3 |
| CCC(O)CN1CCN(C(=O)c2sccc2C(C)C)CC1 (configuration not stated) | -7.94 |
| CN(C)c1cc(C(=O)N2CCN(c3nccs3)CC2)ccn1 | -13.8 |
| Cc1cc(=O)[nH]c(-n2nc(-c3ccccc3)cc2N)n1 | 12.5 |
| CN1CCCC2(CCN(S(=O)(=O)c3ccc(-c4cnco4)s3)C2)C1=O (configuration not stated) | -7.66 |
| O=C(NCCCO)Nc1cccc(C[S+]([O-])Cc2ccccc2)c1 (configuration not stated) | -4.46 |
| Cc1nn(-c2ccccc2)c2c1c(C(F)F)cc(=O)n2CC(=O)O | -9.31 |
| Cc1cccc(-c2cccc(CC3(C(=O)O)CCOCC3)c2)c1 | 9.91 |

| Structure (SMILES) | cytotoxicity at 70.5 h [%] |
| --- | --- |
| NC1(CN2CCOCC2)CCCCC1 | -2.02 |
| CO[C@H]1CCN(C2CCOCC2)C[C@@H]1Cc1ccccc1 | -7.39 |
| Cc1cccnc1CNC(=O)CC1C(=O)NCCN1CC(C)(C)C (configuration not stated) | -10.2 |
| CCN1CCOCC12CCN(c1cnccn1)CC2 | -7.58 |
| O=C(NCCCNc1ccccc1)c1scnc1Cl | 4.41 |
| CN(Cc1ccccn1)C1CC2(CCN(Cc3cccnc3)CC2)C1 | 5.08 |
| CC(C)NC(=O)N1CCc2ncc(CN3CCOCC3)n2CC1 | -1.87 |
| CC(=O)N1CCN(C(=O)c2sc(-c3ccccc3F)nc2C)CC1 | 16.5 |
| CCc1nc(-c2ccc(NC(=O)N3CCOCC3)cc2)no1 | -3.86 |
| O=C1N(Cc2cccnc2)C[C@H]2CN(C3CCOCC3)CCN12 | -0.196 |
| CCc1nnc(CN2CCC3(CCC(=O)N(C4CCCC4)C3)CC2)o1 | -7.05 |
| COCCC(=O)NCC1COc2cc(OC)ccc2C1 (configuration not stated) | -12.7 |
| CN1CCN(CCCNC(=O)c2cc(Cl)c3c(c2)OCO3)CC1 | -6.03 |
| CNC(=O)c1nc2c(s1)CCN(C(=O)c1ccccc1)CC2 | -9.7 |
| CN1CCN(C)C(CNc2c(C#N)cnc3ccc(Cl)cc23)C1 (configuration not stated) | -8.13 |
| Cc1[nH]nc(CCC(=O)N2C[C@H]3CC[C@@H]2CN(C(=O)N(C)C)C3)c1C | -8.2 |
| CCOCC(O)CN1CCN(C(=O)c2cccc(OC)c2)CC1 (configuration not stated) | -2.53 |
| Cc1ccc(C(=O)Nc2nc(C)no2)cc1 | -4.79 |
| O=C(C1CC(F)(F)C1)N1C[C@@H]2CN(CC3CC3)CCO[C@@H]2C1 | 26 |

From ChEMBL document CHEMBL3507680, “University of Dundee, Gates Library screen for HepG2 cell viability”
